Experiments:
[1] = target: interaction between PD-1 and PD-L1 (Homo sapiens (Human), UniProt Q9NZQ7); experiment: PD1-PDL1 HTRF binding activity test (Cisbio PD-1/PD-L1 binding assay kit)
Experimental: I. PD1-PDL1 HTRF Binding Activity Test
The effect of compounds of the examples of the present invention on the interaction between PD-1 and PD-L1 was determined by the PD-1/PD-L1 binding assay kit from Cisbio (#64ICP01PEG or 64ICP01PEH). The detailed experimental process was as follows: • 1. Pre-diluted compound solution, 4 μL of Tag1-PD-L1 and 4 μL of Tag2-PD1 were added to each well of a 384-well plate; • 2. After the mixture was incubated at room temperature for 15 min, 5 μL of anti-Tag1-Eu3+ antibody and 5 μL of anti-Tag2-XL665 antibody were then added; • 3. After incubated for 2 hrs at room temperature or overnight at 4° C., plates were read on Envision of Pelkin Elmer; and readings at 665 nm and 620 nm were recorded, and the ratio of the two readings was taken as a reading for each well; • 4. The reading of each well after compound treatment was compared with the reading of DMSO treated wells to obtain the percent inhibition of the compound; • 5. IC50 values of compounds and positive compounds of the examples of the present invention were determined by non-linear regression analysis of percent inhibition at different compound concentrations. II. Jurkat Reporter Gene Cellular Assay

[2] = Jurkat reporter gene cellular assay; format: cell-based; settings: Homo sapiens; Jurkat/NF-κB-luc/PD1 + Raji-PD-L1 coculture, OKT3 1 μg/mL, 6 hrs, activation fold; read-out: Cell Activity EC50
Method in brief: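 Jurkat cells stably expressing human PD-1 and NF-κB-luciferase co-cultured with PD-L1-expressing Raji cells (5×10^4 each/well) under OKT3 (1 μg/mL final) with compound. Raji cells preincubated 20 min; luminescence read 6 h after Jurkat addition. EC50 from non-linear regression of fold activation over DMSO.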

Chain of interaction between PD-1 and PD-L1 (Q9NZQ7 19-238): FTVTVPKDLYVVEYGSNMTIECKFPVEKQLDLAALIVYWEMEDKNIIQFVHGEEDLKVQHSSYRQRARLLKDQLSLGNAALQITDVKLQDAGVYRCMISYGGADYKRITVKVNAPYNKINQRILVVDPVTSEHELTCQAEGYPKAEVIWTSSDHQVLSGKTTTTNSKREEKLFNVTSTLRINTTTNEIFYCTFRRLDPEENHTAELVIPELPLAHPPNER

Compound	IC50 [1] [nM]	EC50 [2] [nM]
Cn1c(C(=O)Nc2cccc(-c3cccc(/C=C(\F)c4cc(C5CC5)c(CN5CC(C)(O)C5)cn4)c3Cl)c2Cl)nc2c1CCN(CCC13CCC(C(=O)O)(CC1)C3)C2 [Example 36, (Z)-4-(2-(2-((2,2′-dichloro-3′-(2-(4-cyclopropyl-5-((3-hydroxy-3-methylazetidin-1-yl)methyl)pyridin-2-yl)-2-fluorovinyl)-[1,1′-biphenyl]-3-yl)carbamoyl)-1-methyl-1,4,6,7-tetrahydro-5H-imidazo[4,5-c]pyridin-5-yl)ethyl)bicyclo[2.2.1]heptane-1-carboxylic acid]	0.306	3130
COc1cc(/C(F)=C/c2cccc(-c3cccc(NC(=O)c4nc5c(n4C)CCN(CCC46CCC(C(=O)O)(CC4)C6)C5)c3Cl)c2Cl)ncc1CN[C@H](CO)C(=O)O [Example 37, (R,Z)-4-(2-(2-((3′-(2-(5-(((1-carboxy-2-hydroxyethyl)amino)methyl)-4-methoxypyridin-2-yl)-2-fluorovinyl)-2,2′-dichloro-[1,1′-biphenyl]-3-yl)carbamoyl)-1-methyl-1,4,6,7-tetrahydro-5H-imidazo[4,5-c]pyridin-5-yl)ethyl)bicyclo[2.2.1]heptane-1-carboxylic acid]	0.202	178
COc1cc(/C(F)=C/c2cccc(-c3cccc(NC(=O)c4nc5c(n4C)CCN(CCC46CCC(C(=O)O)(CC4)C6)C5)c3Cl)c2Cl)ncc1CNCC(F)F [Example 38, (Z)-4-(2-(2-((2,2′-dichloro-3′-(2-(5-(((2,2-difluoroethyl)amino)methyl)-4-methoxypyridin-2-yl)-2-fluorovinyl)-[1,1′-biphenyl]-3-yl)carbamoyl)-1-methyl-1,4,6,7-tetrahydro-5H-imidazo[4,5-c]pyridin-5-yl)ethyl)bicyclo[2.2.1]heptane-1-carboxylic acid]	0.332	977
COc1cc(/C(F)=C/c2cccc(-c3cccc(NC(=O)c4nc5c(n4C)CCN(CCC46CCC(C(=O)O)(CC4)C6)C5)c3Cl)c2Cl)ncc1CN1CC[C@@H](O)C1 [Example 39, (R,Z)-4-(2-(2-((2,2′-dichloro-3′-(2-fluoro-2-(5-((3-hydroxypyrrolidin-1-yl)methyl)-4-methoxypyridin-2-yl)vinyl)-[1,1′-biphenyl]-3-yl)carbamoyl)-1-methyl-1,4,6,7-tetrahydro-5H-imidazo[4,5-c]pyridin-5-yl)ethyl)bicyclo[2.2.1]heptane-1-carboxylic acid]	0.238	64.7

The remaining molecules from weak to strong by IC50 [1], led by results:

IC50 [1] [nM]	EC50 [2] [nM]	Compound
0.638	93.1	COc1cc(/C(F)=C/c2cccc(-c3cccc(NC(=O)c4nc5c(n4C)CCN(CCC46CCC(C(=O)O)(CC4)C6)C5)c3Cl)c2Cl)ncc1CN[C@@H]1CCOC[C@H]1O [Example 35, 4-(2-(2-((2,2′-dichloro-3′-((Z)-2-fluoro-2-(5-((((3S,4R)-3-hydroxytetrahydro-2H-pyran-4-yl)amino)methyl)-4-methoxypyridin-2-yl)vinyl)-[1,1′-biphenyl]-3-yl)carbamoyl)-1-methyl-1,4,6,7-tetrahydro-5H-imidazo[4,5-c]pyridin-5-yl)ethyl)bicyclo[2.2.1]heptane-1-carboxylic acid]
0.352	80.4	COc1cc(/C(F)=C/c2cccc(-c3cccc(NC(=O)c4nc5c(n4C)CCN(CCC46CCC(C(=O)O)(CC4)C6)C5)c3Cl)c2Cl)ncc1CNC[C@@H]1CCC(=O)N1 [Example 34, (S,Z)-4-(2-(2-((2,2′-dichloro-3′-(2-fluoro-2-(4-methoxy-5-((((5-oxopyrrolidin-2-yl)methyl)amino)methyl)pyridin-2-yl)vinyl)-[1,1′-biphenyl]-3-yl)carbamoyl)-1-methyl-1,4,6,7-tetrahydro-5H-imidazo [4,5-c]pyridin-5-yl)ethyl)bicyclo[2.2.1]heptane-1-carboxylic acid]
